Assay results reported in patent US10080757B2 (WISCONSIN ALUMNI RESEARCH FOUNDATION, priority 2016, dated 2018).
Converted amounts (≈) assume the structure as drawn. Read-outs that look alike come from different tables or passages of the source.

What was measured:
recombinant MtbUGM = target: T1, recombinant MtbUGM (Mycobacterium tuberculosis, UniProt P9WIQ1); experiment: biochemical; conditions: for inhibition at 100 µM: read-out: % inhib MtbUGM (100 μM); for inhibition at 10 µM: read-out: % inhib MtbUGM (10 μM)
T1 construct: made in house

C. elegans = C. elegans growth and proliferation; format: in vivo; conditions: 250 μM
CeUGM = CeUGM inhibition; format: biochemical, C. elegans
M. smegmatis [1] = experiment: Agar disk diffusion assay; parameters: zone of inhibition: dose or concentration left out as unconfirmed
Method: M. smegmatis was grown to saturation over 48 hours at 37° C. in Middlebrook 7H9 media with Albumin Dextrose Catalase (ADC) enrichment and 0.05% Tween80. The culture was diluted to OD600=˜0.2 in LB liquid media and 100 μL of dilute culture was spread onto LB agar plates, then allowed to soak into the agar for 1 hour at room temperature. Sterile disks (3 mm diameter) were impregnated with a solution of inhibitor in DMSO (1.5 μL) and placed on top of the bacterial lawn. […] The plates were incubated for 72 hours at 37° C., at which point a lawn of bacteria was visible. Zones of inhibition were measured as the average diameter of the region around a cloning disk where bacterial growth was not visible. For each disk, three diameter measurements were taken and averaged.

M. smegmatis [2] = experiment: Microplate Alamar Blue Assay (MIC, liquid culture); format: cell-based; conditions: Mycolicibacterium smegmatis
Method: The culture was diluted to OD600=˜0.02 in LB liquid media and added to 96-well plates at a final volume of 100 μL, with added inhibitor concentrations in two-fold dilutions. Perimeter wells were filled with sterile water. After 24 hours at 37° C. in a shaking incubator, 10 μL of the Alamar Blue reagent was added to each well. The plate was incubated for an additional 4 hours at 37° C., at which point fluorescence emission at 585 nm was measured using a plate reader. The lowest inhibitor concentration at which 99% or greater growth inhibition was observed was determined to be the MIC.

[3] = 50 μM, mean of two replicates, read-out: % inhib MtbUGM (50 μM)
[4] = read-out: % inhib MtbUGM (50 μM)

T1 sequence (P9WIQ1 whole entry): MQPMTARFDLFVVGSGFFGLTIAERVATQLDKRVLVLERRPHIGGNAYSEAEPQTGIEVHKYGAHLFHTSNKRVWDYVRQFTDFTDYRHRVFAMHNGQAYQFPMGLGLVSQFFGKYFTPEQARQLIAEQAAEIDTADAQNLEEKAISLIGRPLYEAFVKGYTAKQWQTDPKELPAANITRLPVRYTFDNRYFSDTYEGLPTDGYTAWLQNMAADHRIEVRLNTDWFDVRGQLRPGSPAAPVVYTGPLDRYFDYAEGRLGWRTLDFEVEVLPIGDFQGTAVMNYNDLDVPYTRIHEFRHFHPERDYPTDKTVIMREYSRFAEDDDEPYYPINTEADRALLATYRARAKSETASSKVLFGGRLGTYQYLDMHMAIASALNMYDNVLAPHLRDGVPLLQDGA

Row | Compound | inhibition at 50 µM (recombinant MtbUGM; [3]) | inhibition at 100 µM (recombinant MtbUGM; 100 μM, mean of two replicates) | also measured
1 | O=C(O)CC1Sc2nnc(Cc3ccc(-c4ccccc4)cc3)n2N=C1c1ccc(Cl)cc1 (stereo not shown) [Compound 29, 2-(3-([1,1′-biphenyl]-4-ylmethyl)-6-(4-chlorophenyl)-7H-[1,2,4]triazolo[3,4-b][1,3,4]thiadiazin-7-yl)acetic acid] | 100% | 100% | 
2 | O=C(O)CC1Sc2nnc(Cc3ccc(-c4ccccc4)cc3)n2N=C1c1ccc(Cl)c(Cl)c1 (stereo not shown) [Compound 31, 2-(3-([1,1′-biphenyl]-4-ylmethyl)-6-(3,4-dichlorophenyl)-7H-[1,2,4]triazolo[3,4-b][1,3,4]thiadiazin-7-yl)acetic acid] | 100% | 100% | inhibition at 10 µM (recombinant MtbUGM; 10 μM, mean of two replicates): 50%
3 | Cc1ccc(C2=Nn3c(Cc4ccc(Br)cc4)nnc3SC2CC(=O)O)c(C)c1 (stereo not shown) [Compound 24, 2-(3-(4-bromobenzyl)-6-(2,4-dimethylphenyl)-7H-[1,2,4]triazolo[3,4-b][1,3,4]thiadiazin-7-yl)acetic acid] | 1% | 0% | 
4 | O=C(O)CC1Sc2nnc(Cc3ccc(Br)cc3)n2N=C1c1ccc(C(F)(F)F)cc1 (stereo not shown) [Compound 20, 2-(3-(4-bromobenzyl)-6-(4-(trifluoromethyl)phenyl)-7H-[1,2,4]triazolo[3,4-b][1,3,4]thiadiazin-7-yl)acetic acid] | 11% | 57% | 
5 | O=C(CC1Sc2nnc(Cc3ccc(Br)cc3)n2N=C1c1ccc(Cl)c(Cl)c1)NS(=O)(=O)c1ccccc1 (stereo not shown) [Compound 39] |  |  | inhibition at 10 µM (recombinant MtbUGM): 51%; inhibition at 50 µM (recombinant MtbUGM; [4]): 100%; inhibition at 100 µM (recombinant MtbUGM): 100%
6 | COC(=O)CC1Sc2nnc(-c3cccs3)n2N=C1c1ccc(Cl)cc1 (stereo not shown) [Compound 32, Methyl-2-(6-(4-chlorophenyl)-3-(thiophen-2-yl)-7H-[1,2,4]triazolo[3,4-b][1,3,4]thiadiazin-7-yl)acetate] |  | 20% | 
7 | O=C(O)CC1Sc2nnc(Cc3ccccc3)n2N=C1c1ccc(Cl)cc1 (stereo not shown) [Compound 28, 2-(3-benzyl-6-(4-chlorophenyl)-7H-[1,2,4]triazolo[3,4-b][1,3,4]thiadiazin-7-yl)acetic acid] | 30% | 43% | 
8 | COc1ccc(C2=Nn3c(Cc4ccc(Br)cc4)nnc3SC2CC(=O)O)cc1 (stereo not shown) [Compound 22, 2-(3-(4-bromobenzyl)-6-(4-methoxyphenyl)-7H-[1,2,4]triazolo[3,4-b][1,3,4]thiadiazin-7-yl)acetic acid] | 35% | 44% | 
9 | COC(=O)CC1Sc2nnc(Cc3ccc(Br)cc3)n2N=C1c1ccc(Cl)cc1 (stereo not shown) [Compound 14, Methyl-2-(3-(4-bromobenzyl)-6-(4-chlorophenyl)-7H-[1,2,4]triazolo[3,4-b][1,3,4]thiadiazin-7-yl)acetate] |  | 0% | Effective inhibitor of C. elegans growth at 250 μM (C. elegans; Table 8): No
10 | O=C(CC1Sc2nnc(Cc3ccc(Br)cc3)n2N=C1c1ccc(Cl)cc1)NS(=O)(=O)c1cccs1 (stereo not shown) [Compound 36] |  |  | inhibition at 10 µM (recombinant MtbUGM): 18%; inhibition at 50 µM (recombinant MtbUGM; [4]): 87%; inhibition at 100 µM (recombinant MtbUGM): 100%
11 | O=C(O)CC1Sc2nnc(Cc3ccc(Br)cc3)n2N=C1c1ccc(F)cc1 (stereo not shown) [Compound 23, 2-(3-(4-bromobenzyl)-6-(4-fluorophenyl)-7H-[1,2,4]triazolo[3,4-b][1,3,4]thiadiazin-7-yl)acetic acid] | 25% | 39% | 
12 | O=C(O)CC1Sc2nnc(-c3cccs3)n2N=C1c1ccc(Cl)cc1 (stereo not shown) [Compound 15, 2-(6-(4-chlorophenyl)-3-(thiophen-2-yl)-7H-[1,2,4]triazolo[3,4-b][1,3,4]thiadiazin-7-yl)acetic acid] |  | 50% | 
13 | COc1ccc(S(=O)(=O)NC(=O)C(Cc2ccc(I)cc2)Nc2nc(-c3ccc(Cl)c(Cl)c3)cs2)cc1 (stereo not shown) [Compound 6, 2-((4-(3,4-dichlorophenyl)thiazol-2-yl)amino)-3-(4-iodophenyl)-N-((4-methoxyphenyl)sulfonyl)propanamide] |  |  | IC50 (recombinant MtbUGM; Table 2, standard deviation, n = 3): 18 ± 9 µM; CeUGM % Inhibition at 2.5 μM (CeUGM; 2.5 μM): 92.4 ± 1.2%; zone of inhibition (M. smegmatis [1]; Mycolicibacterium smegmatis, read-out: Inhibition zone): 6 ± 0.1 mm; MIC (M. smegmatis [2]; Table 3, liquid media, at least 99% growth inhibition): 25 µM (≈ 17.2 µg/mL); Effective inhibitor of C. elegans growth at 250 μM (C. elegans; Table 7): No
14 | Cc1ccc(C2=Nn3c(Cc4ccc(Br)cc4)nnc3SC2CC(=O)O)cc1 (stereo not shown) [Compound 21, 2-(3-(4-bromobenzyl)-6-(p-tolyl)-7H-[1,2,4]triazolo[3,4-b][1,3,4]thiadiazin-7-yl)acetic acid] | 32% | 63% | 
15 | C=CCNC(=O)CC1Sc2nnc(-c3cccs3)n2N=C1c1ccc(Cl)cc1 (stereo not shown) [Compound 34, N-allyl-2-(6-(4-chlorophenyl)-3-(thiophen-2-yl)-7H-[1,2,4]triazolo[3,4-b][1,3,4]thiadiazin-7-yl)acetamide] |  | 0% | 
16 | O=C(O)CC1Sc2nnc(Cc3ccc(Br)cc3)n2N=C1c1ccc(Cl)cc1 (stereo not shown) [Compound 11, 2-(3-(4-bromobenzyl)-6-(4-chlorophenyl)-7H-[1,2,4]triazolo[3,4-b][1,3,4]thiadiazin-7-yl)acetic acid] | 36% | 72% | IC50 (recombinant MtbUGM; Table 4): 80 ± 29 µM; CeUGM % Inhibition at 10 μM (CeUGM): 53.5 ± 3.0%; MIC (M. smegmatis [2]; Table 4): 500 µM (≈ 239 µg/mL); Effective inhibitor of C. elegans growth at 250 μM (C. elegans; Table 8): No
17 | O=C(O)CC1Sc2nnc(Cc3ccc4ccccc4c3)n2N=C1c1ccc(Cl)cc1 (stereo not shown) [Compound 30, 2-(6-(4-chlorophenyl)-3-(naphthalen-2-ylmethyl)-7H-[1,2,4]triazolo[3,4-b][1,3,4]thiadiazin-7-yl)acetic acid] | 49% | 88% | 
18 | C=CCNC(=O)CC1Sc2nnc(Cc3ccc(Br)cc3)n2N=C1c1ccc(Cl)cc1 (stereo not shown) [Compound 35, N-allyl-2-(3-(4-bromobenzyl)-6-(4-chlorophenyl)-7H-[1,2,4]triazolo[3,4-b][1,3,4]thiadiazin-7-yl)acetamide] |  | 0% | 
19 | O=C(O)CC1Sc2nnc(Cc3ccc(Br)cc3)n2N=C1c1ccc(Br)cc1 (stereo not shown) [Compound 19, 2-(3-(4-bromobenzyl)-6-(4-bromophenyl)-7H-[1,2,4]triazolo[3,4-b][1,3,4]thiadiazin-7-yl)acetic acid] | 67% | 90% | 
20 | COC(=O)C(Cc1ccc(I)cc1)Nc1nc(-c2ccc(Cl)c(Cl)c2)cs1 (stereo not shown) [Compound 10, Methyl 2-((4-(3,4-dichlorophenyl)thiazol-2-yl)amino)-3-(4-iodophenyl)propanoate] |  |  | inhibition at 50 µM (recombinant MtbUGM; 50 μM compound (FIG. 1), read-out: Inhibition of MtbUGM activity): 30%; Mycobacterial growth inhibition (in words) (M. smegmatis [1]; disk diffusion, solid media): no mycobacterial growth inhibition was observed; Effective inhibitor of C. elegans growth at 250 μM (C. elegans; Table 7): No
21 | Cn1cnc(S(=O)(=O)NC(=O)CC2Sc3nnc(Cc4ccc(Br)cc4)n3N=C2c2ccc(Cl)cc2)c1 (stereo not shown) [Compound 38] |  |  | inhibition at 50 µM (recombinant MtbUGM; [4]): 36%; inhibition at 100 µM (recombinant MtbUGM): 68%
22 | O=C(O)CC1Sc2nnc(Cc3ccc(Br)cc3)n2N=C1c1ccc(Cl)c(Cl)c1 (stereo not shown) [Compound 16, 2-(3-(4-bromobenzyl)-6-(3,4-dichlorophenyl)-7H-[1,2,4]triazolo[3,4-b][1,3,4]thiadiazin-7-yl)acetic acid] | 78% | 95% | 
23 | O=C(O)CC1Sc2nnc(CCc3ccc(Br)cc3)n2N=C1c1ccc(Cl)cc1 (stereo not shown) [Compound 27, 2-(3-(4-bromophenethyl)-6-(4-chlorophenyl)-7H-[1,2,4]triazolo[3,4-b][1,3,4]thiadiazin-7-yl)acetic acid] | 48% | 69% | 
24 | O=C(O)CC1Sc2nnc(-c3ccc(Br)cc3)n2N=C1c1ccc(Cl)cc1 (stereo not shown) [Compound 26, 2-(3-(4-bromophenyl)-6-(4-chlorophenyl)-7H-[1,2,4]triazolo[3,4-b][1,3,4]thiadiazin-7-yl)acetic acid] | 23% | 41% | 
25 | O=C(O)CC1Sc2nnc(-c3cccs3)n2N=C1c1ccc(Cl)c(Cl)c1 (stereo not shown) [Compound 18, 2-(6-(3,4-dichlorophenyl)-3-(thiophen-2-yl)-7H-[1,2,4]triazolo[3,4-b][1,3,4]thiadiazin-7-yl)acetic acid] |  | 80% | 
26 | Cc1ccc(C2=Nn3c(Cc4ccc(Br)cc4)nnc3SC2CC(=O)O)cc1C (stereo not shown) [Compound 17, 2-(3-(4-bromobenzyl)-6-(3,4-dimethylphenyl)-7H-[1,2,4]triazolo[3,4-b][1,3,4]thiadiazin-7-yl)acetic acid] | 41% | 80% | 
27 | O=C(CC1Sc2nnc(Cc3ccc(Br)cc3)n2N=C1c1ccc(Cl)cc1)NS(=O)(=O)c1ccc(Cl)s1 (stereo not shown) [Compound 37] |  |  | inhibition at 10 µM (recombinant MtbUGM): 35%; inhibition at 50 µM (recombinant MtbUGM; [4]): 100%; inhibition at 100 µM (recombinant MtbUGM): 100%
28 | O=C(CC1Sc2nnc(Cc3ccc(-c4ccccc4)cc3)n2N=C1c1ccc(Cl)c(Cl)c1)NS(=O)(=O)c1ccccc1 (stereo not shown) [Compound 40] |  |  | inhibition at 10 µM (recombinant MtbUGM): 85%; inhibition at 50 µM (recombinant MtbUGM; [4]): 100%; inhibition at 100 µM (recombinant MtbUGM): 100%
29 | CS(=O)(=O)NC(=O)CC1Sc2nnc(Cc3ccc(Br)cc3)n2N=C1c1ccc(Cl)cc1 (stereo not shown) [Compound 12, 2-(3-(4-bromobenzyl)-6-(4-chlorophenyl)-7H-[1,2,4]triazolo[3,4-b][1,3,4]thiadiazin-7-yl)-N-(methylsulfonyl)acetamide] | 50% | 58% | IC50 (recombinant MtbUGM; Table 4): 108 ± 42 µM; CeUGM % Inhibition at 10 μM (CeUGM): 68.1 ± 2.1%; MIC (M. smegmatis [2]; Table 4): 500 µM (≈ 277 µg/mL); Effective inhibitor of C. elegans growth at 250 μM (C. elegans; Table 8): No
